Data on three molecules can be found in article PMC8224453, “A New PqsR Inverse Agonist Potentiates Tobramycin Efficacy to Eradicate Pseudomonas aeruginosa Biofilms” (Advanced Science, 2021).

One may read the Papp as a coefficient for how fast a substance crosses the barrier.

A short description of data set [1]: Permeability across Calu-3 monolayer. The settings on record: human; Calu‐3 lung epithelial cells. The format is in vitro ADME. The procedure:
subtraction and plotted using GraphPad Prism 8.4.2 (GraphPad Software, San Diego, CA, […]
USA). Solubility (S) was determined based on the First X value of AUC function using a […]
For the evaluation of combined phase I and phase II metabolic stability, the compound (1 μM) was incubated with 1 mg/mL pooled liver S9 fraction from the respective species (Xenotech), […]
2 mM NADPH, 1 mM UDPGA, 10 mM MgCl2, 5 mM GSH and 0.1 mM PAPS at 37 °C for […]
0, 5, 15, 30 or 60 min. The metabolic stability of Testosterone (1 μM) and verapamil (1 μM) […]
were determined in parallel to confirm the enzymatic activity of the S9 fraction. The […]
incubation was stopped by precipitation of S9 enzymes with 2 volumes of cold acetonitrile […]
containing internal standard (750 nM Diphenhydramine). Samples were stored on ice for 10 […]
Concentration of the remaining test compound at the different time points was analyzed by […]
Permeability of compound 4 and 17 was assessed in vitro with Calu-3 HTB-55 cell line (ATCC). […]
Pyruvate. […] TEER was monitored during the experiment and epithelial barriers were considered compromised if the TEER fell below 300 during 4 h of experiment duration. […] 50 µL of sample was mixed with 150 µL of ice-cold acetonitrile containing internal standard diphenhydramine (1 µM) and the concentration of compound was analyzed with LC-MS/MS. […]

The next data set concerns PA14 wt biofilm. Description: Minimum biofilm eradicating concentration (MBEC) assay. The format is cell-based, Pseudomonas aeruginosa. The text has this: page 21: wild type (PA14 wt) was purchased from DSMZ, the German Collection of Microorganism and Cell Cultures GmbH (PA14 = DSMZ19882) and cultured in minimal proteose peptone glucose ammonium salt (PPGAS) medium. […] KCl, 19 g/L Tris-HCl, 10 g/L peptone, 5 g/L glucose and 0.1 g/L MgSO4∙7H2O. The pH value […] Agar solution was […] resulting solution was sterilized before being plated. The minimum inhibitory concentration (IC) of drug-free SqNPs, compound 4 prepared either in dimethyl sulfoxide (DMSO) or loaded in SqNPs, free Tob, Tob-loaded SqNPs, and Tob and compound 4 co-loaded SqNPs against planktonic PA14 wt were determined by standard microbroth dilution assays in 96-well plates. PA14 wt suspension was prepared from mid-log cultures in PPGAS medium and […] PBS served as a control. […] The MBECs of free Tob, Tob-loaded SqNPs, free Tob plus free compound 4 prepared in DMSO, and Tob and compound (4) co-loaded SqNPs were determined by the MBEC assay as reported in previous study.[2,7] […] The biofilm-eradicating efficacy was assessed according to viable bacterial load determined using dilution in PBS/0.05% Tween20 and plating on agar S20 page 22: plates to count CFU after overnight incubation at […]. […] Using GraphPad Prism 8.4.2, the AUC was calculated for each condition. […] After a 24h treatment, efficacy was assessed by determination of colony-forming units per millilitre (CFU/mL). […]

Regarding `COc1ccc(-n2cc(CNc3ccnc(C(F)(F)F)c3)nn2)cc1Cl` [Compound 17], the Papp at 4 h in data set [1] is 11.4 ×10⁻⁶ cm/s.
In the case of `NC[C@H]1O[C@H](O[C@H]2[C@H](O)[C@@H](O[C@H]3O[C@H](CO)[C@@H](O)[C@H](N)[C@H]3O)[C@H](N)C[C@@H]2N)[C@H](N)C[C@@H]1O` [Tobramycin, tobramycin], the “MBEC (Tob concentration for complete biofilm eradication)” value with PA14 wt biofilm (PA14 wt biofilm, 24 h treatment, 4 constant at 20 × 10^−6 M where used) is “higher than 200 µg mL^−1”.
As for `FC(F)(F)c1cc(NCc2cn(-c3ccc(Oc4ccccc4)cc3)nn2)ccn1` [Compound 4], the Papp at 4 h in data set [1] is 5.3 ×10⁻⁶ cm/s. Also, the “PA14 wt biofilm inhibitory effect” value in the data set with PA14 wt biofilm (controls of the MBEC assay, compound 4 at 20 μM) was “did not show any PA14 wt biofilm inhibitory effects”.
